Numbered stars: 1 amine (or outer) side, 2 acyl side, 3 side chain; on linkers, the order of the positions; unused ones are H or OH. Square brackets hold non-standard residues; d marks the D form. Side chains are listed from the residue outwards. Peptide text beside a SMILES is read from it. * marks the point of attachment. C20 diacid = O=C(O)CCCCCCCCCCCCCCCCCCC(=O)*; γGlu = O=C(O)[C@H](CCC(=O)[*:2])N[*:1]; AEEA = NCCOCCOCC(=O)O; Aib = CC(C)(N)C(=O)O
Columns and labels:
human Gcg receptor = target: T1, human Gcg receptor (Homo sapiens, UniProt P47871); assay: [125I]-Glucagon binding (SPA), human Gcg receptor; settings: read-out: hGLcgR Ki, nM (SEM, n)
T1 construct: expressed in transfected cells; crude membranes
Outline: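 Cell pellets were lysed in hypotonic Tris buffer, pH 7.5, homogenized, and spun at low then high speed to give crude membranes. Ki was derived from the fitted IC50.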

human GIP receptor = target: T2, human GIP receptor (Homo sapiens, UniProt P48546); assay: [125I]-GIP binding (SPA), human GIP receptor; settings: read-out: hGIPR Ki, nM (SEM, n)
T2 construct: expressed in transfected cells; crude membranes
T2 sequence (P48546 22-466): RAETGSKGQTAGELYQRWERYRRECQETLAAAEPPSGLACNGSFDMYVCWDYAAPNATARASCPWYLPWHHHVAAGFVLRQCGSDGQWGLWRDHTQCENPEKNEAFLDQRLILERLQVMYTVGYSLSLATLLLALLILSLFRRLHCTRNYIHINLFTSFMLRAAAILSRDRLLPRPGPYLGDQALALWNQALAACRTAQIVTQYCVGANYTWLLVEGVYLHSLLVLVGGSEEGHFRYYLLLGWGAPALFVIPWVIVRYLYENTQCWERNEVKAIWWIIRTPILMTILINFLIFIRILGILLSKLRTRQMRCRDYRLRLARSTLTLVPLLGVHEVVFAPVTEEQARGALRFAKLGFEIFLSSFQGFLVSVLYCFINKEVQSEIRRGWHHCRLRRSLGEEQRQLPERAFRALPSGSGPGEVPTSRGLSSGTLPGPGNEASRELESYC

[1] = target: human GLP-1 receptor (GLP-1R) (Homo sapiens, UniProt P43220); assay: cAMP pharmacological functional assay in presence of casein, hGLP-1R; type: cell-based; settings: HEK293 cells expressing hGLP-1R, 0.1% Casein, geometric mean; read-out: hGLP1R cAMP Rel EC50 nM (SEM, n)
[2] = target: T3, gastric inhibitory peptide receptor (GIPR) (Homo sapiens, UniProt P48546); assay: cAMP pharmacological functional assay in presence of casein, hGIPR; type: cell-based; settings: HEK293 cells expressing hGIPR, 0.1% Casein, geometric mean; read-out: hGIPR cAMP Rel EC50 nM (SEM, n)
T3 sequence (P48546 22-466): T2 sequence (P48546 22-466)

human GLP-1R = human GLP-1R (Homo sapiens, UniProt P43220); assay: [125I]-GLP-1 binding (SPA), human GLP-1 receptor; parameters: expressed in transfected cells; crude membranes; settings: read-out: hGLP1R Ki, (nM) (SEM, n)
Method: Two methods are used for the preparation of crude cell membranes.
Method 1: Frozen cell pellets are lysed on ice in hypotonic buffer containing 50 mM Tris HCl, pH 7.5, and Roche Complete™ Protease Inhibitors with EDTA. The cell suspension is disrupted using a glass Potter-Elvehjem homogenizer fitted with a Teflon® pestle for 25 strokes. The homogenate is centrifuged at 4° C. at 1100×g for 10 minutes. The supernatant is collected and stored on ice while the pellets are resuspended in homogenization buffer and rehomogenized as described above. The homogenate is centrifuged at 1100×g for 10 minutes. The second supernatant is combined with the first supernatant and centrifuged at 35000×g for 1 hour at 4° C. The resulting membrane pellet is resuspended in homogenization buffer containing protease inhibitors at approximately 1 to 3 mg/mL, quick frozen in liquid nitrogen and stored as aliquots in a−80° C. freezer until use.
Method 2: Frozen cell pellets are lysed on ice in hypotonic buffer containing 50 mM Tris HCl, pH 7.5, 1 mM MgCl2, Roche Complete™ EDTA-free Protease Inhibitors and 25 units/ml DNAse I (Invitrogen). The cell suspension is disrupted using a glass Potter-Elvehjem homogenizer fitted with a Teflon® pestle for 20 to 25 strokes. The homogenate is centrifuged at 4° C. at 1800×g for 15 minutes. The supernatant is collected and stored on ice while the pellets are resuspended in homogenization buffer (without DNAse I) and rehomogenized as described above. The homogenate is centrifuged at 1800×g for 15 minutes. The second supernatant is combined with the first supernatant and centrifuged an additional time at 1800×g for 15 minutes. The overall supernatant is then centrifuged at 25000×g for 30 minutes at 4° C. The resulting membrane pellet is resuspended in homogenization buffer (without DNAse I) containing protease inhibitors at approximately 1 to 3 mg/mL and stored as aliquots in a−80° C. freezer until use.
The binding buffer contains 25 mM HEPES, pH 7.4, 2.5 mM CaCl2, 1 mM MgCl2, 0.1% (w/v) bacitracin, 0.003% (w/v) TWEEN©-20, and Roche Complete™ Protease Inhibitors without EDTA.
Data are analyzed using four-parameter (curve maximum, curve minimum, IC50, Hill slope) nonlinear regression routines (Genedata Screener, version 12.0.4, Genedata AG, Basal, Switzerland). […] Values for Ki are reported as the geometric mean, with error expressed as the standard error of the mean (SEM) and n is equal to the number of independent replicates (determined in assays performed on different days). […] The Ki Ratio is a rapid indication of the apparent affinity of a peptide compared to the native control peptide. […] SEM is only calculated when n=2 or greater non-qualified results exist. Means are expressed as GeoMetric means with the standard error of the mean (SEM) and the number of replicates (n) indicated in parenthesis.

T1 sequence (P47871 26-477): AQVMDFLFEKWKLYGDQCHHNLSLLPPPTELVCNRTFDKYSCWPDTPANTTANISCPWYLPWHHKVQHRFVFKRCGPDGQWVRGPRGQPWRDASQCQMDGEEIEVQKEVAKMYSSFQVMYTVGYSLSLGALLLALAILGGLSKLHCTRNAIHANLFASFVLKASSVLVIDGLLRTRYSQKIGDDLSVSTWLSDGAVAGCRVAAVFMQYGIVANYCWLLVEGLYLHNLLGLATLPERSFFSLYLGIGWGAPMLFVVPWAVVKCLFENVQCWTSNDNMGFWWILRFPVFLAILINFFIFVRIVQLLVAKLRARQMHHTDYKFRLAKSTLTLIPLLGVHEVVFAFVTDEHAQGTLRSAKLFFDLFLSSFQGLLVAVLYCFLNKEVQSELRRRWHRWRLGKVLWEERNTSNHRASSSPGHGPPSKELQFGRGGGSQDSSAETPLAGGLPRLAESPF
human GLP-1 receptor (GLP-1R), sequence (P43220 24-463): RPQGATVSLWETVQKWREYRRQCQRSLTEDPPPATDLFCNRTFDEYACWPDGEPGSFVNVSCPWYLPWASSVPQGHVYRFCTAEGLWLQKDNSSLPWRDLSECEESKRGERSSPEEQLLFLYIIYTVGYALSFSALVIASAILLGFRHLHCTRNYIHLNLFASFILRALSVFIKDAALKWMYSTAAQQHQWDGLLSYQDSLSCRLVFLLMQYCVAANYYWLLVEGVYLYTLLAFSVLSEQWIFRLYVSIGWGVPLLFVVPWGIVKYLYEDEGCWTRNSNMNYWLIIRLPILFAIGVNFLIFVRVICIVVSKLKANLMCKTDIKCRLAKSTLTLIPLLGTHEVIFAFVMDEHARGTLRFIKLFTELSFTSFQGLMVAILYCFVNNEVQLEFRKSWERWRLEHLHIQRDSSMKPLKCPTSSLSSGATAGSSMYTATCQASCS
human GLP-1R, sequence (P43220 24-463): as above

For CC[C@H](C)[C@H](NC(=O)[C@H](CO)NC(=O)[C@H](CC(=O)O)NC(=O)[C@H](CC(C)C)NC(=O)[C@H](CC(C)C)NC(=O)[C@@H](NC(=O)[C@H](CO)NC(=O)[C@H](Cc1ccc(O)cc1)NC(=O)[C@H](CC(=O)O)NC(=O)[C@H](CO)NC(=O)[C@@H](NC(=O)[C@H](Cc1ccccc1)NC(=O)[C@@H](NC(=O)CNC(=O)[C@H](CCC(=O)O)NC(=O)C(C)(C)NC(=O)[C@@H](N)Cc1ccc(O)cc1)[C@@H](C)O)[C@@H](C)O)[C@@H](C)CC)C(=O)N[C@@H](C)C(=O)N[C@@H](CCC(N)=O)C(=O)NC(C)(C)C(=O)N[C@@H](C)C(=O)N[C@@H](Cc1ccccc1)C(=O)N[C@H](C(=O)N[C@@H](CCC(=O)O)C(=O)N[C@@H](Cc1ccc(O)cc1)C(=O)N[C@@H](CC(C)C)C(=O)N[C@@H](CC(C)C)C(=O)N[C@@H](CCCCNC(=O)COCCOCCNC(=O)COCCOCCNC(=O)CC[C@H](NC(=O)CCCCCCCCCCCCCCCCCCC(=O)O)C(=O)O)C(=O)NC(C)(C)C(=O)NCC(=O)N1CCC[C@H]1C(=O)N[C@@H](CO)C(=O)N[C@@H](CO)C(=O)NCC(=O)N[C@@H](C)C(=O)N1CCC[C@H]1C(=O)N1CCC[C@H]1C(=O)N1CCC[C@H]1C(=O)N[C@@H](CO)C(N)=O)[C@@H](C)CC [Example 11] (H-Y[Aib]EGTFTSDYSILLDSIAQ[Aib]AFIEYLLK([AEEA-AEEA-γGlu-C20 diacid])[Aib]GPSSGAPPPS-NH2), which Ki (human Gcg receptor) is on record?
The Ki was 174 nM.

And the Ki (human GIP receptor)?
Its Ki is 0.226 nM.

And the EC50 [1]?
Its EC50 is 6.89 nM.

And the EC50 [2]?
The EC50 was 0.486 nM.

And the Ki (human GLP-1R)?
Its Ki is 15.7 nM.

With CC[C@H](C)[C@H](NC(=O)[C@H](CCCCN)NC(=O)[C@H](CC(=O)O)NC(=O)[C@H](CC(C)C)NC(=O)[C@H](CC(C)C)NC(=O)[C@@H](NC(=O)[C@H](CO)NC(=O)[C@H](Cc1ccc(O)cc1)NC(=O)[C@H](CC(=O)O)NC(=O)[C@H](CO)NC(=O)[C@@H](NC(=O)[C@H](Cc1ccccc1)NC(=O)[C@@H](NC(=O)CNC(=O)[C@H](CCC(=O)O)NC(=O)C(C)(C)NC(=O)[C@@H](N)Cc1ccc(O)cc1)[C@@H](C)O)[C@@H](C)O)[C@@H](C)CC)C(=O)N[C@@H](C)C(=O)N[C@@H](CCC(N)=O)C(=O)N[C@@H](CCCCNC(=O)COCCOCCNC(=O)COCCOCCNC(=O)CC[C@H](NC(=O)CCCCCCCCCCCCCCCCCCC(=O)O)C(=O)O)C(=O)N[C@@H](C)C(=O)N[C@@H](Cc1ccccc1)C(=O)N[C@H](C(=O)N[C@@H](CCC(=O)O)C(=O)N[C@@H](Cc1ccc(O)cc1)C(=O)N[C@@H](CC(C)C)C(=O)N[C@H](C(=O)N[C@@H](CCC(=O)O)C(=O)NCC(=O)NCC(=O)N1CCC[C@H]1C(=O)N[C@@H](CO)C(=O)N[C@@H](CO)C(=O)NCC(=O)N[C@@H](C)C(=O)N1CCC[C@H]1C(=O)N1CCC[C@H]1C(=O)N1CCC[C@H]1C(=O)N[C@@H](CO)C(N)=O)[C@@H](C)CC)[C@@H](C)CC [Example 12] (H-Y[Aib]EGTFTSDYSILLDKIAQK([AEEA-AEEA-γGlu-C20 diacid])AFIEYLIEGGPSSGAPPPS-NH2; N-terminus assumed) as the compound, how does the Ki (human Gcg receptor) read?
Its Ki is 684 nM.

What about the Ki (human GIP receptor) of the same compound?
The Ki was 0.167 nM.

And the EC50 [1]?
The EC50 was 1.15 nM.

What about the EC50 [2] of the same compound?
The EC50 was 0.3 nM.

What about the Ki (human GLP-1R) of the same compound?
The Ki was 12.9 nM.

Which results are given for CC[C@H](C)[C@H](NC(=O)[C@H](CC(C)C)NC(=O)[C@H](Cc1ccc(O)cc1)NC(=O)[C@H](CCC(=O)O)NC(=O)[C@@H](NC(=O)[C@H](Cc1ccccc1)NC(=O)[C@H](C)NC(=O)[C@H](CCCCNC(=O)COCCOCCNC(=O)COCCOCCNC(=O)CC[C@H](NC(=O)CCCCCCCCCCCCCCCCCCC(=O)O)C(=O)O)NC(=O)[C@H](CCC(N)=O)NC(=O)[C@H](C)NC(=O)[C@@H](NC(=O)C(C)(C)NC(=O)[C@H](CC(=O)O)NC(=O)[C@H](CC(C)C)NC(=O)[C@H](CC(C)C)NC(=O)[C@@H](NC(=O)[C@H](CO)NC(=O)[C@H](Cc1ccc(O)cc1)NC(=O)[C@H](CC(=O)O)NC(=O)[C@H](CO)NC(=O)[C@@H](NC(=O)[C@H](Cc1ccccc1)NC(=O)[C@@H](NC(=O)CNC(=O)[C@H](CCC(=O)O)NC(=O)C(C)(C)NC(=O)[C@@H](N)Cc1ccc(O)cc1)[C@@H](C)O)[C@@H](C)O)[C@@H](C)CC)[C@@H](C)CC)[C@@H](C)CC)C(=O)N[C@@H](CCC(=O)O)C(=O)NCC(=O)NCC(=O)N1CCC[C@H]1C(=O)N[C@@H](CO)C(=O)N[C@@H](CO)C(=O)NCC(=O)N[C@@H](C)C(=O)N1CCC[C@H]1C(=O)N1CCC[C@H]1C(=O)N1CCC[C@H]1C(=O)N[C@@H](CO)C(N)=O [Example 13] (H-Y[Aib]EGTFTSDYSILLD[Aib]IAQK([AEEA-AEEA-γGlu-C20 diacid])AFIEYLIEGGPSSGAPPPS-NH2)?
Ki (human Gcg receptor): > 1060 nM; Ki (human GIP receptor): 0.296 nM; EC50 [1]: 5.39 nM; EC50 [2]: 1.05 nM; Ki (human GLP-1R): 31.1 nM

CC[C@H](C)[C@H](NC(=O)[C@H](CCCCN)NC(=O)[C@H](CC(=O)O)NC(=O)[C@H](CC(C)C)NC(=O)[C@H](CC(C)C)NC(=O)[C@@H](NC(=O)[C@H](CO)NC(=O)[C@H](Cc1ccc(O)cc1)NC(=O)[C@H](CC(=O)O)NC(=O)[C@H](CO)NC(=O)[C@@H](NC(=O)[C@H](Cc1ccccc1)NC(=O)[C@@H](NC(=O)CNC(=O)[C@H](CCC(=O)O)NC(=O)C(C)(C)NC(=O)[C@@H](N)Cc1ccc(O)cc1)[C@@H](C)O)[C@@H](C)O)[C@@H](C)CC)C(=O)N[C@@H](C)C(=O)N[C@@H](CCC(N)=O)C(=O)N[C@@H](CCCCNC(=O)COCCOCCNC(=O)COCCOCCNC(=O)CC[C@H](NC(=O)CCCCCCCCCCCCCCCCCCC(=O)O)C(=O)O)C(=O)N[C@@H](CCC(=O)O)C(=O)N[C@@H](Cc1ccccc1)C(=O)N[C@H](C(=O)N[C@@H](CCC(N)=O)C(=O)N[C@@H](Cc1ccc(O)cc1)C(=O)N[C@@H](CC(C)C)C(=O)N[C@@H](CC(C)C)C(=O)N[C@@H](CCC(=O)O)C(=O)NC(C)(C)C(=O)NCC(=O)N1CCC[C@H]1C(=O)N[C@@H](CO)C(=O)N[C@@H](CO)C(=O)NCC(=O)N[C@@H](C)C(=O)N1CCC[C@H]1C(=O)N1CCC[C@H]1C(=O)N1CCC[C@H]1C(=O)N[C@@H](CO)C(N)=O)[C@@H](C)CC [Example 14] (H-Y[Aib]EGTFTSDYSILLDKIAQK([AEEA-AEEA-γGlu-C20 diacid])EFIQYLLE[Aib]GPSSGAPPPS-NH2; N-terminus assumed) was tested. Which Ki (human Gcg receptor) did it give?
The Ki was 160 nM.

What about the Ki (human GIP receptor) of the same compound?
The Ki was 0.0494 nM.

And the EC50 [1]?
Its EC50 is 1.87 nM.

What about the EC50 [2] of the same compound?
The EC50 was 0.284 nM.

What about the Ki (human GLP-1R) of the same compound?
Its Ki is 29.6 nM.
